Test results: patent US8563511B2, “Treatment of pulmonary hypertension using an agent that inhibits a tissue factor pathway” (University of Rochester, priority 2004, dated 2013)

Tests used:
Male Sprague Dawley rats = assay: Induction of PAH by MCT after sham surgery or pneumonectomy in young rats; format: in vivo, rat; details: for pulmonary pressure (RVSP, mean PA): FIG. 1
Description: All animal studies were approved by the IACUC at the University of Rochester prior to the initiation of any animal experiments. Male Sprague Dawley rats weighing between 200 and 250 g were shaved and then endotracheally intubated with an 18 G angiocatheter after anesthesia with ketamine and xylazine (70 mg/kg ketamine and 50 mg/kg xylazine delivered intraperitoneal in 0.9% saline). Flunixin was administered 0.1 mg/kg SQ at the beginning of the case to provide 24 hours postoperative analgesia. Animals were ventilated (respiratory rate 70-90, adjusted while monitoring the animal to prevent spontaneous respiratory effort) at 10-12 cc/kg (Harvard Apparatus) and the left chest was prepared with Betadine scrub. The fourth or fifth intercostal space was identified, and an incision was made with care to avoid lung damage while ventilation was briefly interrupted. A rib retractor was used to expose the thoracic cavity, and the lung was lifted gently to expose the hilar structures. Two ligaclips (Ektacon LS200, Johnson & Johnson) were applied proximally before the left lung was cut at the distal hilar structure. A polyethylene tube with holes at the end and cut into the sides was inserted through the sixth intercostal space and laid in the thoracic cavity where the left lung had been. Two absorbable sutures were used to approximate the ribs, and then the muscles and subcutaneous tissue were approximated with an additional layer of sutures. Care was taken to carefully seal the thoracostomy tube with tissue so that the hole would close spontaneously when the thoracostomy tube was removed. Suction was applied to the tubing at the earliest possible time once a seal had been achieved (sometimes before the subcutaneous tissues were closed). Antisedan (Orion) was administered 0.2 mg/kg IM, and the skin was closed with 9 mm Autoclips (Stoelting). The animal was taken off the ventilator and monitored for spontaneous respirations while suction was applied to the thoracostomy tube. The rat was required to make significant respiratory effort and begin to right itself on the table before the endotracheal and thoracostomy tubes were removed. […] A 30 to 40% mortality is routinely encountered in the 24 hour perioperative period. For the sham surgery, an incision was made to the chest wall. With great care, ventilation was stopped, the chest was listed with forceps, and a small incision was made in the fourth or fifth intercostal space. If there was any evidence for lung damage, the case was converted to a pneumonectomy. A smaller polyethylene tube was inserted through the same hole and laid between the lung and the chest wall. The ribs were approximated with one or two sutures as appropriate. The remainder of the procedure was identical. The animal was ventilated for several minutes after the chest was closed but before sedation was reversed to make sure that total time under anesthesia was approximately the same as in pneumonectomy cases.
(§1) One week later, animals were given MCT (dissolved 60 mg/ml in DMSO) as a subcutaneous injection (vehicle animals were treated with the same volume of DMSO alone). They were monitored and allowed ordinary chow and water for 28 days (in the group of animals which were utilized to generate FIG. 2, two of the animals initially treated with pneumonectomy and MCT died spontaneously on days 18 and 23, so the remaining four animals were sacrificed at Day 24).
Exercise capacity was monitored 5 and 10 days after MCT treatment and then more frequently as the disease progressed. Rats were placed on a treadmill (Columbus Instruments) that stimulates them with a mild electric shock when they fail to run. Each assessment lasted for 16 min: 2 min. @ 10 m/min, 4 min @ 15 m/min, 5 min @ 20 m/min, and 5 min @ 25 m/min. The maximum distance run was 305 m. This procedure has been specifically approved by the local IACUC.
Initially, a grid intensity of 70% maximum and frequency of 2 Hz was used. […]

[1] = test system: patients with pulmonary hypertension; details: cited from earlier work
[2] = test system: Pneum/MCT rats (rat model of severe pulmonary arterial hypertension); assay: Treatment of PAH in pneumonectomy + MCT young rat model; format: in vivo; details: bosentan 100 mg/kg daily
Description: All animal studies were approved by the IACUC at the University of Rochester prior to the initiation of any animal experiments. Male Sprague Dawley rats weighing between 200 and 250 g were shaved and then endotracheally intubated with an 18 G angiocatheter after anesthesia with ketamine and xylazine (70 mg/kg ketamine and 50 mg/kg xylazine delivered intraperitoneal in 0.9% saline). Flunixin was administered 0.1 mg/kg SQ at the beginning of the case to provide 24 hours postoperative analgesia. […] The animal was taken off the ventilator and monitored for spontaneous respirations while suction was applied to the thoracostomy tube. […]
as §1
Exercise capacity was monitored 5 and 10 days after MCT treatment and then more frequently as the disease progressed. […]

C[C@H]1C(=O)O[C@@H]2CCN3CC=C(COC(=O)[C@](C)(O)[C@]1(C)O)[C@H]23 [MCT, monocrotaline]
(RV + S)/LV (Male Sprague Dawley rats; MCT after pneumonectomy): 1.8 ± 0.6
(RV + S)/Weight (Male Sprague Dawley rats; MCT after pneumonectomy): 2.7 ± 0.3
LV/Weight (Male Sprague Dawley rats; MCT after pneumonectomy): 1.6 ± 0.5
pulmonary pressure (RVSP, mean PA) (Male Sprague Dawley rats; MCT after pneumonectomy): near systemic elevations in pulmonary pressure
(RV + S)/LV (Male Sprague Dawley rats; MCT after sham surgery): 1.20 ± 0.3
(RV + S)/Weight (Male Sprague Dawley rats; MCT after sham surgery): 1.9 ± 0.4
LV/Weight (Male Sprague Dawley rats; MCT after sham surgery): 1.6 ± 0.2
pulmonary pressure (RVSP, mean PA) (Male Sprague Dawley rats; MCT following sham surgery): modest PAH
exercise capacity (16 min treadmill protocol) (Male Sprague Dawley rats; Pneum/MCT rats, by day 17 after MCT): unable to complete the 16 min protocol
exercise capacity (16 min treadmill protocol) (Male Sprague Dawley rats; Sham/MCT rats): consistently completed the exercise protocol

CC(=O)CC(c1ccccc1)c1c(O)c2ccccc2oc1=O (stereo not shown) [warfarin]
survival ([1]; Kawut et al., patients also on advanced therapies such as prostacyclin): survival benefit
mortality at 5 years ([1]; Rich et al., prospective observational trial): decreased mortality

COc1ccccc1Oc1c(NS(=O)(=O)c2ccc(C(C)(C)C)cc2)nc(-c2ncccn2)nc1OCCO [bosentan]
PA pressure [2]: only a modest elevation in PA pressure
